From US8859819B2, “Sulphurated derivatives of resorcinol, preparation of same and cosmetic uses thereof” (Pierre Fabre Dermo-Cosmetique, priority 2009, dated 2014)
Read-outs that look alike come from different tables or passages of the source.

Columns and labels:
[1] = Antioxidant capacity by chemiluminescence (Photochem Analytik Jena); settings: for μg of sample for 1 μg of Trolox: Trolox equivalent, lower = stronger antioxidant
Procedure: This test is used to determine the antioxidant capacity of the molecules. It is a method that generates free radicals by a photochemical signal. The intensity of the oxidation is 1000 times greater than that obtained under normal conditions.
The detection is carried out by chemiluminescence. It enables the evaluation of hydrosoluble and liposoluble anti-oxidant molecules or extracts.
The results are expressed respectively in equivalent quantity of vitamin C or Trolox (6-hydroxy-2,5,7,8-tetramethylchroman-2-carboxylic acid). The sensitivity is of the order of a nanomole.
The antioxidant activity studied in this test represents the capacity to trap specifically superoxide anions by chemiluminescence.
The quantified results are expressed in Trolox equivalent (standard), i.e. in “μg of product for 1 μg of Trolox”. This signifies that a quantity×of sample is needed to obtain an activity equivalent to the activity detected for 1 μg of standard. It is an anti-oxidant power relative to a reference, which makes it possible to disregard the concentration tested.
The superoxide radical: 02^0− is generated by a photochemical reaction: L+hv (UV)+O2→L*O2→L^0++O2^0−
A part of the superoxide anions is quenched by the anti-oxidants. The remaining free radicals are quantified by chemiluminescence. L^0++O2^0−→N2+AP*^2−→AP^2−+hv (luminescence)

mushroom tyrosinase = molecular target: T1, mushroom tyrosinase (Agaricus bisporus, UniProt C7FF04); experiment: Tyrosinase inhibition test (in vitro acellular depigmenting activity); assay type: biochemical; settings: for Tyrosinase depigmenting activity result: class symbol, assay from 250 to 150 μM, overall tyrosinase activity (MPMOg), L-tyrosine substrate
T1 construct: purchased Sigma T-3824
T1 sequence (C7FF04 1-392 limits assumed): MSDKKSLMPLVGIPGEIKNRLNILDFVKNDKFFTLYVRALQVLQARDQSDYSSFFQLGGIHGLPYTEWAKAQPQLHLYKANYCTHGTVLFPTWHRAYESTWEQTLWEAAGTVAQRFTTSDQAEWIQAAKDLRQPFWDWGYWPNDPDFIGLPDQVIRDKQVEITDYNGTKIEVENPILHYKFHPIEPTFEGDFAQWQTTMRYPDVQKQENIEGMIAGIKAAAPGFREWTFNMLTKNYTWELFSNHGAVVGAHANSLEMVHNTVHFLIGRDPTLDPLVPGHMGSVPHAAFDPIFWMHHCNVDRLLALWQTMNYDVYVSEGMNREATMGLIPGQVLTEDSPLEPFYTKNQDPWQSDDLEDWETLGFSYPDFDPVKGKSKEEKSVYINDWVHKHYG
Text: A) Determination of the Depigmenting Activity in an in vitro Acellular Test: Tyrosinase Inhibition Test)
This test is used to evaluate the depigmenting activity of the molecules tested. Tyrosinase is a limiting enzyme in melanogenesis.
It belongs to the family of oxydoreductases. It has in particular the function: monophenol monooxygenase (MPMO) and polyphenol oxidase (PPO).
It is synthesised at the level of the melanocytes. It is activated during its migration towards melanosome […]. It transforms tyrosine into DOPA then dopaquinone, which leads in fine to a polymerisation, i.e. a production of pigments (see diagram below).
The substrate: L-tyrosine, is transformed into L-DOPA by the monophenol mono oxygenase function which is transformed by the polyphenol oxidase function from tyrosinase into dopaquinone. The latter is going to self-oxidise into dopachrome which is measured by spectrophotometry at 490 nm.
More precisely, it is the overall tyrosinase activity (MPMOg) which is measured since it is the dopachrome in fine that is assayed. Thus the products tested on MPMOg (=measurement of the activity on PPO and MPMO) can cumulate the inhibition of the 2 functions, • inhibiting uniquely the MPMO function stricto sensus (transformation of tyrosine into DOPA) as a complement to the PPO test, • could inhibit PPO uniquely. General Experimental Conditions:

B16-F10 cells = experiment: Melanin assay test in B16-F10 cells; assay type: cell-based, murine; settings: Mus musculus, read-out: B16 activity results -% at X μM
Procedure: B) Melanin Assay Test in B16-F10 Cells:
This involves a test of measuring the synthesis of melanin by colorimetric assay on a murine melanoma cell line: the B16-F10 line. This test makes it possible to evaluate the depigmenting power of active ingredients.
The B16-F10 cells are cultured in 96-well plates in DMEM medium supplemented with FCS (foetal calf serum), and incubated for 24 hours at 37° C., 5% CO2. The cells are then stimulated with 0.1 μM α-MSH (to stimulate the synthesis of melanin, the stimulation observed is around 150%) and treated for 72 hours with the active ingredients to be tested. Each concentration of active ingredient is tested at least in triplicate. The total melanin followed by the intracellular melanin dissolved in the lysis buffer are then assayed by absorbance reading at 405 nm. The total proteins are assayed in the lysate and the results are expressed in mg melanin/mg proteins. The percentage of activity is calculated as follows: […]
A negative value indicates an inhibition, whereas a positive value indicates an induction of the synthesis of melanin.
• B16-F10 cell line between P10 and P20 (murine melanocytes) (ATCC, CRL-6475)
Reagents: • DMEM without phenol red (GibcoBRL, 31053-028), 200 mM Glutamax-I Supplement (GibcoBRL, 35050-038), D-PBS (GibcoBRL, 14190-094), Foetal calf serum (Invitrogen, 10270-098), Trypsine-EDTA (GibcoBRL, 25300-054), NaOH (Sigma, S8045-500G), DMSO (Sigma, 471267-1L), Nle, Phe—Melanocyte Stimulating Hormone (Sigma, M-8764), Melanin (Sigma, M-0418), BCA-Copper (Sigma, B9643 and C2284), BSA (Sigma, P0914) C) Test for the Study of the Antioxidant Capacity by Chemiluminescence (Photochem Analytik Jena) Principle: […]

[2] = Protection of linoleic acid following a UV stress (Fenton conditions, MDA-TBA assay); design: % Protection Linoleic acid under UV/Fenton: concentration or dose not given beside the values; settings: for % Protection Linoleic acid under UV/Fenton: UV + H2O2 + iron II
Text: D) Test of Protection of Linoleic Acid Following a UV Stress. Target: Protection of Linoleic Acid Under Fenton Conditions, UV Irradiation Linoleic acid belongs to the family of polyunsaturated fatty acids (PUFA) (AGPI). Sensitive to oxidation, linoleic acid is a favoured target for oxygenated free radicals (OFR) in biological media. When biological membranes are exposed to an oxidative stress, the components the most affected are the phospholipids constituted of PUFA and cholesterol. Their degradation leads to lipidic peroxidation and generally to destructuring. Lipidic peroxidation is a self-catalysing process which generally involves OFR. Lipidic peroxidation is in part responsible for skin ageing. The method employed to evaluate lipid peroxidation is based on the coupling of thiobarbituric acid (TBA) and secondary degradation products leading to coloured compounds detectable by spectrofluorometry. The essential secondary compound of final degradation is malondialdehyde, MDA. MDA is a carcinogenic and mutagenic aldehyde, it acts on proteins and DNA. The sample to be tested is placed in contact with linoleic acid in a weight/weight ratio. The sample undergoes an MED (Minimal Erythemal Dose) irradiation under Fenton conditions, namely in the presence of H202 and iron II in a solar simulator. Following irradiation, the reaction mixture is taken up in methanol and derivatised at 90° C. with TBA. Chromogene, the MDA-TBA complex, representative of the equimolar production of MDA is assayed by fluorimetry (excitation at 525 nm, emission at 549 nm). The results are expressed in fluorescence units, as a function of a MDA-TBA control range then expressed as concentration of the MDA-TBA complex. Then, the percentage of the starting MDA/linoleic acid (LA) ratio is determined. Then the percentage of protection of linoleic acid is determined. The product assay is expressed as weight/weight ratio, in other words in weight percentage with respect to the total quantity of linoleic acid. The maximal MDA level is determined by the condition UV+H202+iron II (F). The percentage of protection of linoleic acid represents: the % ratio of MDA under maximal stress conditions untreated over the % of MDA under stress conditions treated by the product.

[3] = reference products of the interpretation scale
[4] = monophenol monooxygenase (MPMO) function, reference molecules for the test, read-out: IC 50 (MPMO)

Row | Tyrosinase depigmenting activity result (mushroom tyrosinase) | SMILES | % Protection Linoleic acid under UV/Fenton [2] | μg of sample for 1 μg of Trolox [1] | also measured
1 |  | O=C(O)CCCC[C@@H]1CCSS1 (racemic) [Lipoic acid, reference compound] |  |  | Activity (antioxidant, interpretation scale) [1, 3]: None; μg of sample for 1 μg of Trolox (scale for interpreting the results, reference products) [1, 3]: NEGATIVE
2 |  | OC[C@H]1O[C@@H](Oc2ccc(O)cc2)[C@H](O)[C@@H](O)[C@@H]1O [Arbutin, reference compound] |  |  | inhibition at 88 µM (mushroom tyrosinase; at 88 μM, MPMO function): 57%
3 |  | Cc1cc(C(C)(C)C)c(O)c(C(C)(C)C)c1 [BHT, reference compound] |  |  | Activity (antioxidant, interpretation scale) [1, 3]: Good (3.01 to 50)
4 |  | N[C@@H](CS)C(=O)O [Cysteine, reference compound] |  |  | Activity (antioxidant, interpretation scale) [1, 3]: Medium (50.1 to 1000)
5 | + + + | Oc1ccc(Sc2ccc(O)cc2O)c(O)c1 [Example 1, 4,4′-thiodibenzene-1,3-diol] | 90% | 23 μg of sample for 1 μg of Trolox | inhibition at 61 µM (B16-F10 cells; B16-F10, 61 μM, α-MSH stimulated, 72 hours, negative value = inhibition): 50%
6 | + + + | CCCCCCCCCCCC(=O)Oc1cc(O)ccc1Sc1ccc(O)cc1O [Example 14, 2-(2,4-dihydroxyphenylthio)-5-hydroxyphenyl dodecanoate] |  | 4.8 μg of sample for 1 μg of Trolox | inhibition at 48 µM (B16-F10 cells; B16-F10, 48 μM, α-MSH stimulated, 72 hours, negative value = inhibition): 50%
7 | + + + | CCCCCCCC(=O)Oc1ccc(Sc2ccc(O)cc2O)c(O)c1 [Example 16, 4-(2,4-dihydroxyphenylthio)-3-hydroxyphenyl octanoate] | 91% | 33.2 μg of sample for 1 μg of Trolox | 
8 | + + + | COc1ccc(/C=C/C(=O)Oc2cc(O)ccc2Sc2ccc(O)cc2O)cc1OC [Example 23, (E)-2-(2,4-dihydroxyphenylthio)-5-hydroxyphenyl 3-(3,4-dimethoxyphenyl)acrylate] | 96% | 2.8 μg of sample for 1 μg of Trolox | 
9 |  | CCCCCCCCCCCC(=O)Oc1cc(O)ccc1[S+]([O-])c1ccc(O)cc1O (centres unmarked) [Example 26, 2-(2,4-dihydroxyphenylsulphinyl)-5-hydroxyphenyl dodecanoate] | 80% | 69 μg of sample for 1 μg of Trolox | 
10 |  | CCCCC/C=C\C/C=C\CCCCCCCC(=O)Oc1cc(O)ccc1[S+]([O-])c1ccc(O)cc1O (centres unmarked) [Example 27, (9Z,12Z)-2-(2,4-dihydroxyphenylsulphinyl)-5-hydroxyphenyl octadeca-9,12-dienoate] | 78% | 40 μg of sample for 1 μg of Trolox | 
11 |  | CCCCCCCCCCOc1cc(O)ccc1[S+]([O-])c1ccc(O)cc1O (centres unmarked) [Example 28, 4-(2-(decyloxy)-4-hydroxyphenylsulphinyl)benzene-1,3-diol] | 94% | 28 μg of sample for 1 μg of Trolox | 
12 |  | O=S(=O)(c1ccc(O)cc1O)c1ccc(O)cc1O [Example 29, 4,4′-sulphonyldibenzene-1,3-diol] | 25% | 301 μg of sample for 1 μg of Trolox | μg of sample for 1 μg of Trolox ([1]; listed as resorcinol sulphone): 301 μg of sample for 1 μg of Trolo
13 |  | CCCCCCCCCCOc1cc(O)ccc1S(=O)(=O)c1ccc(O)cc1O [Example 30, 4-(2-(decyloxy)-4-hydroxyphenylsulphonyl)benzene-1,3-diol] | 34% | 147 μg of sample for 1 μg of Trolox | 
14 |  | Oc1ccc(O)cc1 [Hydroquinone, reference compound] |  |  | IC50 (mushroom tyrosinase; [4]): 3 to 4 µM
15 |  | N[C@@H](CCC(=O)N[C@@H](CS)C(=O)NCC(=O)O)C(=O)O [Reduced glutathion, reference compound] |  |  | % inhibition (PPO) (mushroom tyrosinase; at 25 μM, PPO function): 55%; IC50 (mushroom tyrosinase; [4]): 1 to 2 µM
16 |  | O=c1c(O)c(-c2ccc(O)c(O)c2)oc2cc(O)cc(O)c12 [quercetin, reference compound] |  |  | protection of linoleic acid ([2]; positive control at 0.1% (weight/weight of linoleic acid)): around 50%; protection of linoleic acid ([2]; positive control at 1% (weight/weight of linoleic acid)): almost total protection

Row | SMILES | Tyrosinase depigmenting activity result (mushroom tyrosinase) | % Protection Linoleic acid under UV/Fenton [2] | μg of sample for 1 μg of Trolox [1] | also measured
17 | CCCCOc1ccc(Sc2ccc(O)cc2O)c(O)c1 [Example 6, 4-(4-butoxy-2-hydroxyphenylthio)benzene-1,3-diol] | + + + |  | 14.9 μg of sample for 1 μg of Trolox | inhibition at 20 µM (B16-F10 cells; B16-F10, 72 h): 30%
18 | CCCCC/C=C\C/C=C\CCCCCCCC(=O)Oc1cc(O)ccc1Sc1ccc(O)cc1O [Example 21, (9Z, 12Z)-2-(2,4-dihydroxyphenylthio)-5-hydroxyphenyl octadeca-9,12-dienoate] | + + + |  | 5.9 μg of sample for 1 μg of Trolox | inhibition at 32 µM (B16-F10 cells; B16-F10, 32 μM, α-MSH stimulated, 72 hours, negative value = inhibition): 50%; IC50 (mushroom tyrosinase): 11 µM
19 | COc1ccc(/C=C/C(=O)Oc2cc(O)ccc2Sc2ccc(O)cc2O)cc1 [Example 22, (E)-2-(2,4-dihydroxyphenylthio)-5-hydroxyphenyl 3-(4-metoxyphenyl)acrylate] | + + + | 97% | 2.5 μg of sample for 1 μg of Trolox | 
